Values of other authors in patent publication US20150314047A1, “BORON COMPOSITE SURFACE COATINGS AND THEIR APPLICATION ON IMPLANTABLE DEVICES TO ACCELERATE OSSEOUS HEALING” (Rutgers, The State University of New Jersey, priority 2014, published 2015).
Like-named read-outs stand apart in the source and are kept apart here.

How the values were obtained:
[1] = test system: human origin cultured cells
[2] = test system: axial skeleton; conditions: boron administered at several concentrations
[3] = test system: pre-osteoblastic cells; conditions: 0.1, 1, 10, and 100 ng/mL boron concentrations

For cubic boron nitride, the “Effect on cell survival” value [1] is given as “did not affect cell survival”.

In the case of `[B]` [boron], the “Higher resistance to vertebral crushing force” value [2] is given as 10% and the “Bone Morphogenic Proteins (BMPs)-4, -6, and -7” value [3] is given as “increases”.

For `[Co]` [cobalt], the “Effect on cell survival” value ([1]; even at reasonably high concentrations) is given as “negatively affected cell survival”.
